Structures can show the parent of a compound that is named as a salt. Where two headings read alike, the source gives them in different places.
Experiments:
AML patient samples = test: 10-point dose-response drug screen of statins against AML patient samples, 3-day drug sensitivity assay; type: cell-based, human; details: for IC50: 3-day assay; for statin-mediated killing: highly sensitive cases 285, 340 and 290, result in words
Procedure: Drug sensitivity assays were performed using a 1,536-well platform where all cells and reagents were deposited in wells using an acoustic liquid handling unit that is highly accurate for dispensing of nanoliter volumes of liquid. […] After dispensing the cells into the wells, an independent drug at a known concentration is added to each well and incubated with the cells. After three days, the percentage of live cells in each well is determined to assess the killing efficiency of each compound. […] Cell viability assays are known to those of skill in the art. See, for example, Pemovska et al., Individualized systems medicine strategy to tailor treatments for patients with chemorefractory acute myeloid leukemia. Cancer Discovery 3:1416-1429, 2013; Pabst et al., Identification of small molecules that support human leukemia stem cell activity ex vivo. Nature Methods 11:436-442, 2014; Baccelli et al., A novel approach for the identification of efficient combination therapies in primary human acute myeloid leukemia specimens. Blood Cancer Journal 7:e529, 2017. In studies described herein, the 1,536-well format was utilized, which allowed for use of four times fewer cells as well as less drug and media components due to the small assay volume of 5 microliters. […] Other compounds like CellTiter-Glo (Promega, Madison, Wis.) are equally appropriate reagents for determining cell viability.
Conditions for the drug screening assays were as described in Pabst et al., Identification of small molecules that support human leukemia stem cell activity ex vivo, Nature Methods 11:436-442, 2014). Using this protocol, cells were cultured in Iscove's Modified Dulbecco's Medium (IMDM), 15% BIT (bovine serum albumin, insulin, transferrin; Stem Cell Technologies 09500 (Vancouver, Calif.)), 100 ng/ml SCF (Shenandoah 100-04 (Warwick, Pa.)), 50 ng/ml FLT3L (Shenandoah 100-21), 20 ng/ml IL-3 (Shenandoah 100-80), 20 ng/ml G-CSF (Shenandoah 100-72), 10^-4 M β-mercaptoethanol, gentamicin (50 μg/ml) and ciprofloxacin (10 μg/ml).
Cells were removed from liquid nitrogen and placed in a 37° C. bath, just until thawed. For 1,536-well screens utilizing 6,000 wells about 100 million cells were thawed. The volume was doubled with pre-warmed culture media and placed on ice for about one to two minutes. The cells were brought to a final volume of about 8 to 10 mL before spinning down at 1,100 rpm for 5 min at 10° C. The pelleted cells were resuspended in 10 mL of culture media and plated in a tissue-culture treated T75 flask at a density of 1 to 2 million cells/ml. The cells were cultured overnight prior to fluorescence-activated cell sorting of viable cells on the following day.
After cells were cultured overnight, a cell scraper was used to remove any cells that adhered to the plastic. The cells were gently pipetted up and down to break up aggregates. Then, the entire volume was transferred to a 50 mL conical tube through a 70 micron cell strainer to remove cell clumps. The T75 flask was rinsed and scraped with about 10 mL HBSS and transferred to the same 50 mL conical tube through the strainer. The harvested cells were spun down at 1,100 rpm for 5 min at 10° C. The cells were then resuspendd in about 300-500 microliters FACS buffer (HBSS+2% FBS+1× propidium iodide) and transferred to a FACS tube. The tube was placed on ice and viable cells that are forward- and side-scatter gated on viable myeloid blasts were sorted by FACS (the scatter gate should exclude small lymphocytes, large myeloid cells, and debris). After sorting the required number of viable cells, the cells were spun down at 1,100 rpm for 5 min at 10° C. and subsequently resuspended at 4,000-4,500 cells per 5 microliter volume of complete culture media with growth factors and penicillin/streptomycin.

relapsed AML cells = test: Drug sensitivity assay, 1,536-well, 3-day culture with individual approved drugs at 10 μM, viability by alamarBlue; type: cell-based, human; details: number of relapsed AML cases out of 18 tested with >70% cell death; 10 μM, 3-day culture
How it was run: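 Three-day exposure of primary AML cells to individual drugs in 1,536-well format, viability read as percent live cells. Cells were thawed, cultured overnight, sorted by FACS for viable blasts and plated at 4,000-4,500 cells/5 μL in cytokine-supplemented IMDM/BIT medium.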

[1] = target: cGMP-inhibited phosphodiesterase (PDE3); details: cited from earlier work
[2] = read-out: In vivo cMax; plasma concentration achievable in vivo at the FDA-recommended dose and schedule; cited from earlier work
[3] = Homo sapiens, 72 h, patient sample AML 280, read-out: IC50 AML 280
[4] = Homo sapiens, 72 h, patient sample AML 285, read-out: IC50 AML 285
[5] = Homo sapiens, 72 h, patient sample AML 290, read-out: IC50 AML 290
[6] = Homo sapiens, 72 h, patient sample AML 297, read-out: IC50 AML 297
[7] = Homo sapiens, 72 h, patient sample AML 299, read-out: IC50 AML 299
[8] = Homo sapiens, 72 h, patient sample AML 307, read-out: IC50 AML 307
[9] = Homo sapiens, 72 h, patient sample AML 330, read-out: IC50 AML 330
[10] = Homo sapiens, 72 h, patient sample AML 339, read-out: IC50 AML 339
[11] = Homo sapiens, 72 h, patient sample AML 340, read-out: IC50 AML 340
[12] = Homo sapiens, 72 h, patient sample AML 343, read-out: IC50 AML 343
[13] = patient sample AML 280, read-out: IC50 AML 280
[14] = patient sample AML 285, read-out: IC50 AML 285
[15] = patient sample AML 290, read-out: IC50 AML 290
[16] = patient sample AML 297, read-out: IC50 AML 297
[17] = patient sample AML 299, read-out: IC50 AML 299
[18] = patient sample AML 307, read-out: IC50 AML 307
[19] = patient sample AML 330, read-out: IC50 AML 330
[20] = patient sample AML 339, read-out: IC50 AML 339
[21] = patient sample AML 340, read-out: IC50 AML 340
[22] = patient sample AML 343, read-out: IC50 AML 343

In the case of CC[C@H](C)C(=O)O[C@H]1C[C@@H](C)C=C2C=C[C@H](C)[C@H](CC[C@@H]3C[C@@H](O)CC(=O)O3)[C@H]21 [LOVASTATIN], the IC50 (AML patient samples; [3]) is reported as over 10 µM, the IC50 (AML patient samples; [4]) is reported as 3.81 µM and the IC50 (AML patient samples; [5]) is reported as 4.41 µM. The IC50 (AML patient samples; [6]) was over 10 µM, the IC50 (AML patient samples; [7]) was over 10 µM and the IC50 (AML patient samples; [8]) was over 10 µM. For the same compound, the IC50 (AML patient samples; [9]) was over 10 µM, the IC50 (AML patient samples; [10]) was over 10 µM and the IC50 (AML patient samples; [11]) was 8.92 µM. For the same compound, the IC50 (AML patient samples; [12]) was over 10 µM and the “#Cases >70% cell death” value (relapsed AML cells) was 2.

For CC(C)c1c(C(=O)Nc2ccccc2)c(-c2ccccc2)c(-c2ccc(F)cc2)n1CC[C@@H](O)C[C@@H](O)CC(=O)[O-].CC(C)c1c(C(=O)Nc2ccccc2)c(-c2ccccc2)c(-c2ccc(F)cc2)n1CC[C@@H](O)C[C@@H](O)CC(=O)[O-].[Ca+2] [ATORVASTATIN CALCIUM], the statin-mediated killing (AML patient samples) was “most significant activity”, the IC50 (AML patient samples; [13]) was 2.24 µM and the IC50 (AML patient samples; [14]) was 0.475 µM. The IC50 (AML patient samples; [15]) was 0.584 µM, the IC50 (AML patient samples; [16]) was over 10 µM and the IC50 (AML patient samples; [17]) was 2.9 µM. The IC50 (AML patient samples; [18]) was 1.09 µM, the IC50 (AML patient samples; [19]) was over 10 µM and the IC50 (AML patient samples; [20]) was 9.12 µM. For the same compound, the IC50 (AML patient samples; [21]) was 0.732 µM, the IC50 (AML patient samples; [22]) was over 10 µM and the “#Cases >70% cell death” value (relapsed AML cells) was 12.

Work on CC(C)c1nc(N(C)S(C)(=O)=O)nc(-c2ccc(F)cc2)c1/C=C/[C@@H](O)C[C@@H](O)CC(=O)[O-].CC(C)c1nc(N(C)S(C)(=O)=O)nc(-c2ccc(F)cc2)c1/C=C/[C@@H](O)C[C@@H](O)CC(=O)[O-].[Ca+2] [ROSUVASTATIN CALCIUM (Crestor), ROSUVASTATIN CALCIUM] yielded an IC50 (AML patient samples; [13]) of 8.35 µM, an IC50 (AML patient samples; [14]) of 1.47 µM and an IC50 (AML patient samples; [15]) of 1.46 µM. The IC50 (AML patient samples; [16]) was over 10 µM, the IC50 (AML patient samples; [17]) was over 10 µM and the IC50 (AML patient samples; [18]) was 3.79 µM. It also gave an IC50 (AML patient samples; [19]) of over 10 µM, an IC50 (AML patient samples; [20]) of over 10 µM and an IC50 (AML patient samples; [21]) of 2.52 µM. For the same compound, the IC50 (AML patient samples; [22]) was over 10 µM and the “#Cases >70% cell death” value (relapsed AML cells) was 9.

For COc1cc2c(cc1OC)-c1c/c(=N\c3c(C)cc(C)cc3C)n(C)c(=O)n1CC2.Cl [TREQUINSINçHCL], the IC50 [1] is listed as 0.00025 µM and the “#Cases >70% cell death” value (relapsed AML cells) is listed as 1.

CC(C)n1c(/C=C/C(O)CC(O)CC(=O)O)c(-c2ccc(F)cc2)c2ccccc21 (stereo not drawn) [FLUVASTATIN] gave an IC50 (AML patient samples; [3]) of 2.42 µM, an IC50 (AML patient samples; [4]) of 0.426 µM and an IC50 (AML patient samples; [5]) of 0.417 µM. The IC50 (AML patient samples; [6]) was over 10 µM, the IC50 (AML patient samples; [7]) was 3.81 µM and the IC50 (AML patient samples; [8]) was 1.58 µM. For the same compound, the IC50 (AML patient samples; [9]) was over 10 µM, the IC50 (AML patient samples; [10]) was 7.79 µM and the IC50 (AML patient samples; [11]) was 0.721 µM. The IC50 (AML patient samples; [12]) was over 10 µM, the Cmax [2] was 490 nM and the “#Cases >70% cell death” value (relapsed AML cells) was 7.

In the case of O=C([O-])C[C@H](O)C[C@H](O)/C=C/c1c(C2CC2)nc2ccccc2c1-c1ccc(F)cc1.O=C([O-])C[C@H](O)C[C@H](O)/C=C/c1c(C2CC2)nc2ccccc2c1-c1ccc(F)cc1.[Ca+2] [PITAVASTATIN CALCIUM], the statin-mediated killing (AML patient samples) is reported as “most significant activity”, the IC50 (AML patient samples; [13]) is reported as 1.35 µM and the IC50 (AML patient samples; [14]) is reported as 0.157 µM. It also gave an IC50 (AML patient samples; [15]) of 0.149 µM, an IC50 (AML patient samples; [16]) of over 10 µM and an IC50 (AML patient samples; [17]) of 1.81 µM. The IC50 (AML patient samples; [18]) was 0.726 µM, the IC50 (AML patient samples; [19]) was 9.83 µM and the IC50 (AML patient samples; [20]) was 5.24 µM. The IC50 (AML patient samples; [21]) was 0.475 µM, the IC50 (AML patient samples; [22]) was over 10 µM and the Cmax [2] was 250 nM. For the same compound, the “#Cases >70% cell death” value (relapsed AML cells) was 13.

Compound CCC(C)(C)C(=O)O[C@H]1C[C@@H](C)C=C2C=C[C@H](C)[C@H](CC[C@@H]3C[C@@H](O)CC(=O)O3)[C@H]21 [SIMVASTATIN] has an IC50 (AML patient samples; [4]) of over 10 µM, an IC50 (AML patient samples; [5]) of over 10 µM and an IC50 (AML patient samples; [6]) of 6.94 µM. It also gave an IC50 (AML patient samples; [7]) of over 10 µM, an IC50 (AML patient samples; [8]) of over 10 µM and an IC50 (AML patient samples; [9]) of over 10 µM. It also gave an IC50 (AML patient samples; [10]) of 5.08 µM, an IC50 (AML patient samples; [11]) of over 10 µM and an IC50 (AML patient samples; [12]) of over 10 µM. For the same compound, the “#Cases >70% cell death” value (relapsed AML cells) was 6.

For CC[C@H](C)C(=O)O[C@H]1CCC=C2C=C[C@H](C)[C@H](CC[C@@H]3C[C@@H](O)CC(=O)O3)[C@H]21 [MEVASTATIN], the “#Cases >70% cell death” value (relapsed AML cells) was 7.

In the case of N#CN=C(NCCCCCCOc1ccc(Cl)cc1)Nc1ccncc1 [GMX1778], the “#Cases >70% cell death” value (relapsed AML cells) is reported as 16.

With CCOc1cc2ncc(C#N)c(Nc3ccc(OCc4cccc(F)c4)c(Cl)c3)c2cc1NC(=O)/C=C/CN(C)C [HKI 357] the “#Cases >70% cell death” value (relapsed AML cells) was 4.

With COc1cc(C(=O)OCCCN2CCCN(CCCOC(=O)c3cc(OC)c(OC)c(OC)c3)CC2)cc(OC)c1OC [DILAZEP DIHYDROCHLORIDE] the “#Cases >70% cell death” value (relapsed AML cells) was 2.
